From patent publication US9242012B2, “Methods for killing PSMA-expressing, taxane-resistant cancer cells” (PSMA Development Company, LLC, priority 2008, dated 2016)
Where a SMILES comes first, the peptide text is derived from it. [ ]: non-standard residue; d: D form. The star is where a group is joined. Dolaproine = CO[C@@H]([C@@H]1CCCN1)[C@@H](C)C(=O)O; Dil = CC[C@H](C)[C@H](NC)[C@@H](CC(=O)O)OC; X1 = C[C@@H](N*)[C@@H](O)c1ccccc1; NMeV = CN[C@H](C(=O)O)C(C)C

Tests used:
[1] = Phase 1 dose-escalation study of PSMA ADC: pharmacokinetics (ELISA, LC/MS/MS); format: in vivo, human
Excerpt: An open-label, dose-escalation phase 1 study of PSMA ADC (comprising MMAE) in patients with taxane refractory metastatic prostate cancer (metCRPC) was initiated. The objectives of the study were to (1) determine a maximum tolerated dose (MTD) for PSMA ADC administered once every 3 weeks; (2) assess the safety, tolerability, pharmacokinetics (PK) and pharmacodynamics (PD) of PSMA ADC across the dose-escalation range; (3) assess immunogenicity; and (4) assess antitumor activity. PSMA ADC in saline was administered by IV infusion Q3 W for up to 4 cycles. Subjects received either 0.4 mg/kg, 0.7 mg/kg, 1.1 mg/kg, or 1.8 mg/kg or will receive 2.0 mg/kg (at weeks 1, 4, 7 and 10).
Adverse events, PK, PSA, circulating tumor cells, clinical disease progression and immunogenic response to PSMA ADC continued to be assessed (FIGS. 19-21). Serum concentrations of PSMA ADC and total antibody were measured by an enzyme-linked immunosorbent assay (ELISA) method, and free MMAE was measured by liquid chromatography/mass spectrometry/mass spectrometry (LC/MS/MS) method. Individual patients report bone pain reduction as described below.

C4-2 cells [2] = test: Single C4-2 xenograft mouse given docetaxel, then switched to PSMA ADC after relapse; format: in vivo, nude mouse
Method: The in vivo therapeutic efficacy of PSMA ADC in a subcutaneous xenograft model of human prostate cancer was assessed. […] C4-2 is an androgen-independent human prostate cancer cell line. At day 11, the tumor size of each mouse was measured, by length and width in millimeters, using a caliper (Mitutoyo, Aurora, Ill.). The tumor volume was calculated using the following formula: Volume(mm^3)=[(Length)×(Width)^2]/2
It was given 12 doses of docetaxel, IP, at 12 mg/kg weekly. As shown in FIG. 3 and Table 2, the animal initially responded to the docetaxel treatment, the tumor volume was reduced to ˜300 mm^3 at day 60, but then it progressed to ˜800 mm^3 at day 100. The treatment of docetaxel was stopped, and PSMA ADC was given IV at 6 mg/kg for an additional 12 doses, weekly. […] PSMA ADC can treat tumors that fail docetaxel treatment.

C4-2 cells [3] = test: C4-2 xenograft, PSMA ADC after docetaxel treatment failure (Example 3); format: in vivo, athymic nude mice
Method: An experiment (FIG. 10) was designed to evaluate PSMA ADC effectiveness after docetaxel treatment failure. […] At day 14, animals having a tumor volume between 100-200 mm^3 were randomized (randomization #1) into two treatment arms: (1) vehicle control (PBS buffer, n=10); (2) docetaxel at 2 mg/kg/IV weekly (n=50) according to tumor volume. The mean tumor volume was 138.0 and 138.1 mm^3 for the vehicle control and docetaxel treatment groups, respectively, at randomization.
All animals then received intravenous injections of PBS or docetaxel (Sigma, St. Louis, Mo.) at 2 mg/kg via tail vein in a volume of 0.1 mL. Tumor sizes were measured twice per week after tumor implantation, and the average tumor volume for the two groups before the second randomization was initiated were plotted (FIG. 11).
Animals were randomized into these two treatment subgroups continuously over the period of 28 days to 70 days post tumor implantation. By the end of day 70, there were 28 mice whose tumor volume had exceeded 400 mm^3, with 14 mice randomized into the PSMA ADC treatment subgroup (mean tumor volume of 695 mm^3 and 14 mice randomized into the continued docetaxel treatment subgroup (mean tumor volume of 642 mm^3 with a p-value of 0.28 (student t-test)).
The effect of PSMA ADC treatment on tumor growth after docetaxel failure was assessed by comparing tumor reduction after the second randomization. […]

C4-2 cells [4] = system: C4-2 cells
Method: Male athymic nude mice, 6-8 weeks old, obtained from Charles River Laboratories, Inc., were implanted with Matrigel subcutaneously into the right flank of each mouse with 5 million C4-2 cells (androgen-independent human prostate cancer cell line). At day 14, tumor size was measured by length and width in mm (millimeter). The volume was calculated using the formula: volume (mm^3)=[(length)×(width)^2]/2. […] Animals were dosed weekly through the tail vein.
When the tumor volume of an animal in the docetaxel treatment group exceeded 400 mm^3, this animal was randomized, at a 1:1 ratio, into one of the two treatment subgroups: one group continued to receive docetaxel at 2 mg/kg weekly (n=18), and the second group was switched to PSMA ADC treatment at 6 mg/kg/IV weekly (n=18). Mice whose tumors durably responded to docetaxel (≦400 mm^3) continued to receive docetaxel at 2 mg/kg/IV weekly. Treatment effects were assessed by measuring tumor volume and overall survival. Animal body weight was also measured. Animals with tumor size ≧2000 mm^3 were sacrificed.

[5] = system: hormone-refractory prostate cancer; conditions: cited from earlier work

SMILES	exposure to free MMAE versus dose ([1]; after IV PSMA ADC 0.4-1.8 mg/kg)	exposure to free MMAE relative to PSMA ADC ([1]; after IV PSMA ADC, serum, LC/MS/MS)	tumor volume (C4-2 cells [2]; day 60, docetaxel IP 12 mg/kg weekly, start ~500 mm^3 at day 21)	tumor volume (C4-2 cells [2]; day 100, progressed on docetaxel IP 12 mg/kg weekly)	tumor volume course after second randomization (docetaxel failure, >400 mm^3) (C4-2 cells [3]; PSMA ADC 6 mg/kg IV weekly or continued docetaxel 2 mg/kg)	tumor growth compared to vehicle control (C4-2 cells [3]; docetaxel 2 mg/kg IV weekly, n=50, before second randomization, by day 21 p=0.025)	tumor size of individual animals after second randomization (C4-2 cells [4]; PSMA ADC (panel A) or continued docetaxel (panel B))	average body weight change post second randomization (C4-2 cells [4]; PSMA ADC versus continued docetaxel, p<0.001)	median survival post second randomization (C4-2 cells [4]; continued docetaxel 2 mg/kg weekly, n=18)	animals sacrificed due to large tumors (>2,000 mm^3) (C4-2 cells [4]; continued docetaxel treatment group, day 157 post second randomization)	increase in survival ([5]; docetaxel (Taxotere) in combination with prednisone, advanced prostate cancer)	survival benefit ([5]; docetaxel in combination with prednisone)
CC[C@H](C)[C@@H]([C@@H](CC(=O)N1CCC[C@H]1[C@H](OC)[C@@H](C)C(=O)N[C@H](C)[C@@H](O)c1ccccc1)OC)N(C)C(=O)[C@@H](NC(=O)[C@@H](NC)C(C)C)C(C)C [MMAE, monomethylauristatin norephedrine] (H-[NMeV]V[Dil][Dolaproine]-X1)	dose proportional	< 0.1%	–	–	–	–	–	–	–	–	–	–
CC(=O)O[C@@]12CO[C@@H]1C[C@H](O)[C@@]1(C)C(=O)[C@H](O)C3=C(C)[C@@H](OC(=O)[C@H](O)[C@@H](NC(=O)OC(C)(C)C)c4ccccc4)C[C@@](O)([C@@H](OC(=O)c4ccccc4)[C@H]21)C3(C)C [docetaxel]	–	–	~300 mm^3	~800 mm^3	grew continuously	reduced tumor growth compared to control	tumors continued to progress except in one animal	lost weight	45 days	16 of 18	2-3 months	2.4 month
